Laboratory results as given in ChEMBL document CHEMBL1201862, “PubChem BioAssay data set” (2004).
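Compound exposure: 48 hours, 5 concentrations, 96-well plates. GI50 = concentration required for 50% inhibition of growth.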 Activity calls are given as the source filed them. No stated cut-off is given here; in the data, active = GI50 up to about 1.1 µM and inactive = higher.

Experiments:
Experiment in all cases: DTP human tumour cell line panel, 48 h
HCT-116 = tested on: HCT-116
786-0 = tested on: 786-0
KM12 = tested on: KM12
A549 = tested on: A549
SNB-75 = tested on: SNB-75
K562 = tested on: K562
HOP-62 = tested on: HOP-62
HCT-15 = tested on: HCT-15
HCC 2998 = tested on: HCC 2998
NCI-H460 = tested on: NCI-H460
MOLT-4 = tested on: MOLT-4
LOX IMVI = tested on: LOX IMVI
SK-OV-3 = tested on: SK-OV-3
ACHN = tested on: ACHN
A498 = tested on: A498
TK-10 = tested on: TK-10
EKVX = tested on: EKVX

| Compound | GI50 (HCT-116) | GI50 (786-0) | GI50 (KM12) | GI50 (A549) | GI50 (SNB-75) | GI50 (K562) | GI50 (HOP-62) | GI50 (HCT-15) | GI50 (HCC 2998) | GI50 (NCI-H460) | GI50 (MOLT-4) | GI50 (LOX IMVI) | GI50 (SK-OV-3) | GI50 (ACHN) | GI50 (A498) | GI50 (TK-10) | GI50 (EKVX) |
| --- | --- | --- | --- | --- | --- | --- | --- | --- | --- | --- | --- | --- | --- | --- | --- | --- | --- |
| COC(=O)N/N=C(\c1nc2ccc(Cl)cc2nc1O)C(O)c1ccc([N+](=O)[O-])cc1 (stereo not drawn) | > 100 µM (inactive) | > 100 µM (inactive) | > 100 µM (inactive) | > 100 µM (inactive) | > 100 µM (inactive) | > 100 µM (inactive) | > 100 µM (inactive) | > 100 µM | > 100 µM (inactive) | > 100 µM (inactive) | 98.4 µM (inactive) | > 100 µM (inactive) | > 100 µM (inactive) |  |  |  |  |
| CC(C)(C)OC(=O)C1=C(O)C(C(=O)OC(C)(C)C)C23CCCCC12C(C(=O)OC(C)(C)C)C(O)=C3C(=O)OC(C)(C)C (stereo not drawn) | > 100 µM (inactive) | > 100 µM (inactive) | > 100 µM (inactive) | > 100 µM (inactive) | > 100 µM (inactive) | > 100 µM (inactive) | > 100 µM (inactive) | > 100 µM | > 100 µM (inactive) | > 100 µM (inactive) | > 100 µM (inactive) | > 100 µM (inactive) | > 100 µM (inactive) | > 100 µM (inactive) | > 100 µM (inactive) | > 100 µM (inactive) | > 100 µM (inactive) |
| N#CCC(=O)N/N=C(\C(=O)Nc1ccc(Cl)c(Cl)c1)C1CN(c2ccccc2)N=C1N (stereo not drawn) | > 100 µM (inactive) | > 100 µM (inactive) | > 100 µM (inactive) | > 100 µM (inactive) | > 100 µM (inactive) | > 100 µM (inactive) | > 100 µM (inactive) | > 100 µM | > 100 µM (inactive) | > 100 µM (inactive) | 49.8 µM (inactive) | > 100 µM (inactive) | > 100 µM (inactive) | > 100 µM (inactive) | > 100 µM (inactive) | > 100 µM (inactive) | > 100 µM (inactive) |
| N#Cc1c(N)c(C(=O)O)nn(-c2cccc(C(F)(F)F)c2)c1=O | > 100 µM (inactive) | > 100 µM (inactive) | > 100 µM (inactive) | > 100 µM (inactive) | 14 µM (inactive) | 64.7 µM (inactive) |  | 95.1 µM |  | > 100 µM (inactive) | > 100 µM (inactive) | > 100 µM (inactive) | > 100 µM (inactive) | > 100 µM (inactive) | 41 µM (inactive) | > 100 µM (inactive) | 33.6 µM (inactive) |
| Cc1c2c(cc3c(=O)ccn(CCN(C)C)c13)c(=O)ccn2CCN(C)C | 6.35 µM (inactive) | 4.13 µM (inactive) | 3.08 µM (inactive) | 13.7 µM (inactive) | 11.9 µM (inactive) | 17.8 µM (inactive) | 6.62 µM (inactive) | 4.5 µM | 6.19 µM (inactive) | 3.69 µM (inactive) | 3.96 µM (inactive) | 10.3 µM (inactive) | 8.61 µM (inactive) | 5.4 µM (inactive) | 21.4 µM (inactive) | 11.7 µM (inactive) | 13 µM (inactive) |
| O=C1C2=C(c3ccccc31)C(c1ccccc1Cl)NC(S)=N2 (stereo not drawn) | 44.9 µM (inactive) | > 100 µM (inactive) | 44.5 µM (inactive) | 85.1 µM (inactive) | 26.9 µM (inactive) | 49.2 µM (inactive) | > 100 µM (inactive) | 59.2 µM | > 100 µM (inactive) | 72.8 µM (inactive) | 31.8 µM (inactive) |  | > 100 µM (inactive) | 41.8 µM (inactive) | 61.8 µM (inactive) | 75.2 µM (inactive) | > 100 µM (inactive) |
| C=C1C(=O)OC2/C=C(\C=O)CC/C=C(\C)C(O)C[C@@H]12 (stereo partly drawn) | 1.68 µM (inactive) | 2.85 µM (inactive) | 5.77 µM (inactive) | 16.1 µM (inactive) | 15.1 µM (inactive) | 3.33 µM (inactive) | 28.1 µM (inactive) | 3.65 µM | 17.8 µM (inactive) | 13.3 µM (inactive) | 2.77 µM (inactive) | 6.18 µM (inactive) | 21.3 µM (inactive) | 7.35 µM (inactive) | 10.2 µM (inactive) | 12.3 µM (inactive) | 15.6 µM (inactive) |
| Cc1ccccc1NC(=O)C(=O)C(C#N)c1ccccc1C (stereo not drawn) | > 100 µM (inactive) | > 100 µM (inactive) | > 100 µM (inactive) | > 100 µM (inactive) | > 100 µM (inactive) | 21.9 µM (inactive) | > 100 µM (inactive) | > 100 µM | > 100 µM (inactive) | 38.2 µM (inactive) | > 100 µM (inactive) | 22.5 µM (inactive) | > 100 µM (inactive) | > 100 µM (inactive) | > 100 µM (inactive) | > 100 µM (inactive) | > 100 µM (inactive) |
| O=S1(=O)OCCOS(=O)(=O)C1(Br)Br | > 100 µM (inactive) | > 100 µM (inactive) | > 100 µM (inactive) | > 100 µM (inactive) | > 100 µM (inactive) | > 100 µM (inactive) | > 100 µM (inactive) |  | > 100 µM (inactive) |  | > 100 µM (inactive) |  | > 100 µM (inactive) |  |  | > 100 µM (inactive) | > 100 µM (inactive) |
| Cc1cc(=O)oc2c(C)c(OCCCOc3ccc4c(C)cc(=O)oc4c3C)ccc12 | > 100 µM (inactive) | > 100 µM (inactive) | > 100 µM (inactive) | > 100 µM (inactive) |  | > 100 µM (inactive) | > 100 µM (inactive) | > 100 µM |  | > 100 µM (inactive) | > 100 µM (inactive) | > 100 µM (inactive) | > 100 µM (inactive) |  | > 100 µM (inactive) | > 100 µM (inactive) | > 100 µM (inactive) |
| C=CCn1c2c(sc1=S)C(S)NC=N2 (stereo not drawn) | 77.3 µM (inactive) | > 100 µM (inactive) | > 100 µM (inactive) | 69 µM (inactive) | > 100 µM (inactive) | 73.5 µM (inactive) | 39 µM (inactive) | > 100 µM | 26.5 µM (inactive) | > 100 µM (inactive) | > 100 µM (inactive) | > 100 µM (inactive) | > 100 µM (inactive) | 71.3 µM (inactive) | 30.8 µM (inactive) | > 100 µM (inactive) | 49.5 µM (inactive) |
| O=C1C2C(C(=O)N1c1ccccc1)C1c3ccccc3C2C2C(=O)N(c3ccccc3)C(=O)C21 (stereo not drawn) | 3.12 µM (inactive) | 3.89 µM (inactive) | 6.1 µM (inactive) | 5.86 µM (inactive) | 3.73 µM (inactive) | 3.42 µM (inactive) |  | 3.43 µM | 3.67 µM (inactive) | 3.71 µM (inactive) | 20.7 µM (inactive) | 10.5 µM (inactive) | 8.22 µM (inactive) | 6.47 µM (inactive) | 6.71 µM (inactive) | > 100 µM (inactive) | > 100 µM (inactive) |
| O=S1OC2(c3ccccc3-c3ccccc32)c2ccccc21 (stereo not drawn) | > 100 µM (inactive) | > 100 µM (inactive) | > 100 µM (inactive) | > 100 µM (inactive) | > 100 µM (inactive) | > 100 µM (inactive) | 40.6 µM (inactive) | 86.3 µM | > 100 µM (inactive) | > 100 µM (inactive) | 52.4 µM (inactive) | > 100 µM (inactive) | > 100 µM (inactive) | > 100 µM (inactive) | > 100 µM (inactive) | > 100 µM (inactive) | > 100 µM (inactive) |
| CNc1ccc(/C=C2\C=Cc3ccccc32)cc1 | 33.1 µM (inactive) | 31.5 µM (inactive) | 12.7 µM (inactive) | 24 µM (inactive) |  | 32 µM (inactive) | 18.9 µM (inactive) | 20.9 µM | 16.6 µM (inactive) | 16.6 µM (inactive) | 41.9 µM (inactive) | 11.5 µM (inactive) | 26.5 µM (inactive) | 20.3 µM (inactive) | 28.1 µM (inactive) | 23.9 µM (inactive) | 20.1 µM (inactive) |
| COC(=O)c1oc([N+](=O)[O-])c(-c2ccccc2)c1-c1ccccc1 | > 100 µM (inactive) | > 100 µM (inactive) | > 100 µM (inactive) | > 100 µM (inactive) | > 100 µM (inactive) | > 100 µM (inactive) | > 100 µM (inactive) |  | > 100 µM (inactive) | > 100 µM (inactive) | 33.6 µM (inactive) | 35.5 µM (inactive) | > 100 µM (inactive) | > 100 µM (inactive) | > 100 µM (inactive) | > 100 µM (inactive) | > 100 µM (inactive) |
| FC(F)(F)C1(Br)C(c2ccccc2)=C1c1ccccc1 | 6.7 µM (inactive) | 15.9 µM (inactive) | 15.8 µM (inactive) | 17.7 µM (inactive) | 29.1 µM (inactive) | 7.14 µM (inactive) | 18.5 µM (inactive) | 12.3 µM | 16.9 µM (inactive) | 24.7 µM (inactive) | 2.7 µM (inactive) | 12.9 µM (inactive) | 45.2 µM (inactive) | 16.8 µM (inactive) |  | 22.9 µM (inactive) | 32.2 µM (inactive) |
| O=CC[C@H]1CCc2ccccc2C12CCC(=O)CC2 | 39.3 µM (inactive) | > 100 µM (inactive) | 82.8 µM (inactive) | 55.7 µM (inactive) | 52.8 µM (inactive) | 28.2 µM (inactive) | > 100 µM (inactive) | 80.4 µM | > 100 µM (inactive) | > 100 µM (inactive) | 30.5 µM (inactive) | 62.7 µM (inactive) | > 100 µM (inactive) | > 100 µM (inactive) | > 100 µM (inactive) |  |  |
| Clc1ccc2cccc3c2c1C1OC3c2ccccc21 (stereo not drawn) | > 100 µM (inactive) | > 100 µM (inactive) | 71.4 µM (inactive) | > 100 µM (inactive) | 99.8 µM (inactive) | 66.7 µM (inactive) | > 100 µM (inactive) |  | > 100 µM (inactive) |  | > 100 µM (inactive) | > 100 µM (inactive) | > 100 µM (inactive) | > 100 µM (inactive) | > 100 µM (inactive) | > 100 µM (inactive) | > 100 µM (inactive) |
